Legend:
HeLa cells = experiment: Superoxide anion generation with DHE probe; assay type: cell-based, human; details: 5 μM; after irradiation; low-oxygen conditions
Method: ROS were determined using the 2′,7′-dichlorofluorescein diacetate (DCFH-DA) and DHE reagents. HeLa cells were seeded onto 96-well plates at 2 × 10^4 cells/well for 24 h under normoxia (21% O2) or hypoxia (2% O2) in the humidified CO2 incubator. Cells were then cotreated with selective ROS scavengers and with 5 μM of the tested complexes for 1 h. NAC (5 mM) was used as a general scavenger for ROS production. Formation of ^1O2 was prevented using sodium azide (NaN3) at a final concentration of 5 mM; hydroxyl radicals (^•OH) were scavenged using D-Mannitol (Mann) at […]; superoxide anion (^•O2^–) production was reduced using the tiron scavenger (5 mM); generation hydrogen peroxide was prevented using sodium pyruvate (NaPyr) at 10 mM; and peroxyl radical (ROO^•) species were scavenged using 0.1 mM of Trolox. The ROS scavengers remained throughout the experiment. After treatment application, cells were incubated for 1 h in the dark followed by 1 h of irradiation with visible light. […] Cells were then trypsinized to allow cell capture by the flow cytometer (Fortessa X20) using the 96-well plate adaptation and analyzed using Flowing Software version 2.5.1. […]
Figure S7. Dihydroethidium fluorescence (DHE) analysis for determination of superoxide anion levels after treatments with tested 5 μM compounds (1 h incubation and 1 h irradiation). […]

[1] = set-up: method as in PMID 29283264; details: in water; cited from earlier work

| Compound | superoxide anion induction compared to irradiated control cells (DHE) (HeLa cells) | absorption maximum λabs [1] | emission maxima [1] |
| --- | --- | --- | --- |
| CCN(CC)c1ccc2c(c1)O/C(=C(/C#N)c1cc[n+](CC(F)(F)F)cc1)C=C2C [Compound 2] | slightly induced |  |  |
| CCN(CC)c1ccc2c(c1)O/C(=C(/C#N)c1cc[n+](C)cc1)C=C2C [Compound 1] | slightly induced | 543 nm | 605 nm |
